Test results published in patent publication US10189957B2, “Formulation process method to produce spray dried products” (ISP INVESTMENTS LLC, priority 2007, dated 2019).

How the values were obtained:
[1] = Dissolution test, USP apparatus II (paddles), powders in size 1 hard gelatin capsules; type: physicochemical; conditions: amount equivalent to 50 mg efavirenz, capsules with additional 15% croscarmellose sodium, 37° C.
Procedure: A. The dissolution properties of both amorphous compositions were tested and compared to crystalline EFV. An amount equivalent to 50 mg efavirenz was analyzed. Powders were hand-filled into size 1 hard gelatin capsules (Shinogi Qualicaps) with an additional 15% croscarmellose sodium (Ac-Di-Sol®, FMC BioPolymers). USP apparatus II (paddles) (VK 7010®, Varian Inc.) was used, with a bath temperature of 37° C. and a paddle speed of 50 rpm for 60 minutes.
B. Each of the amorphous powders from Examples 1 and 2 achieved higher rate of release and maximum aqueous concentration than the crystalline form (FIG. 6, Table 2). The initial rate of release from the amorphous powders was more than 10-times higher than the crystalline form.

[2] = Solubility in ethyl acetate at standard laboratory conditions; type: physicochemical; conditions: about 25° C. and 1 atmosphere
Procedure: A dispersion was prepared containing 1 ezetimibe: 1 PVP K-12 at 1% total solids in ethyl acetate at standard laboratory conditions (about 25° C. and 1 atmosphere).

Row | SMILES | extent of release ([1]; paddle speed 50 rpm for 60 minutes) [%] | rate of release, 0-15 min ([1]; paddle speed 50 rpm, 0-15 min) [mg/min] | solubility in ethyl acetate [2]
1 | O=C1Nc2ccc(Cl)cc2[C@@](C#CC2CC2)(C(F)(F)F)O1 [crystalline EFV, efavirenz] | 10 | 0.13 | 
2 | O=C1[C@H](CC[C@H](O)c2ccc(F)cc2)[C@@H](c2ccc(O)cc2)N1c1ccc(F)cc1 [ezetimibe] |  |  | soluble
